Source: patent US20100077512A1 (priority 2006, published 2010)
Each block holds one compound with its values, some of them ahead of it.

Legend:
[1] = tested on: tobacco budworm (Heliothis virescens); conditions: 2500 ppm, eggs sprayed, 6 days
Description: 15 to 25 eggs were placed into microtiterplates filled with diet. The eggs were sprayed with 10 μl of the test solution, the plates were sealed with pierced foils and kept at 27-29° C. and 75-85% humidity under fluorescent light for 6 days. Mortality was assessed on the basis of the agility and of comparative feeding of the hatched larvae. Tests were replicated 2 times.

[2] = tested on: Mediterranean fruitfly (Ceratitis capitata); conditions: 2500 ppm, eggs sprayed, 6 days

melting point: 120 to 122 °C
SMILES: O=S(=O)(NCc1ccnnc1)c1cc(Br)cs1

SMILES: N#Cc1ccc(-c2ccc(S(=O)(=O)NCc3ccnnc3)cc2)cc1 [Example 11]
mortality [1]: at least 75%

SMILES: O=S(=O)(NCc1ccnnc1)c1ccc(-c2ccc(Cl)cc2)nc1 [Example 60]
mortality [2]: at least 75%
